Assay results published in US4649191A, “Conformationally constrained alpha-melanotropin analogs with specific central nervous system activity” (Gibson-Stephens Neuropharmaceuticals, Inc., priority 1984, dated 1987).
Positions of bridges follow the written chain, without caps; N, C: chain ends. Non-standard residues stand in square brackets, D forms with d. Residues, ends and D or L forms follow the SMILES beside them.

Tests used:
Sprague-Dawley rats [1] = test: Morphine antagonism, tail flick test; format: in vivo, rat; settings: Reversal of morphine analgesia, 100 μg peptide given I.P. 30 min before 5 mg/kg morphine; 55° C. water bath, 15 s cut-off; water vehicle control 48.9
Method: (§1) Central nervous system activity is determined in an assay which measures the ability of peptides to reverse or inhibit the in vivo analgesia induced in rats by morphine compared to the ability of the peptide to cause skin darkening in frogs in vivo. For a discussion of these assays see generally, Beckwith, B. E. and Sandman, C. A., Peptides, 3, 411-420 (1982) and Zimmerman, E. and Krivoy, W. A., Prog. Brain Res.; 39, 383-394 (1973), which are specifically incorporated by reference herein.
(§2) In Vivo Bioassays. Morphine antagonism was tested in Sprague-Dawley rats (250-300 g) by administering the compounds of the present invention and measuring the latency to rear paw lick and jumping.
(§3) Each rat received either a water vehicle or an α-MSH analog intraperitoneally. Thirty minutes later 5 mg/kg of morphine was administered to all animals and 30 minutes after the administration of the morphine, the percent analgesia was measured. Each animal was placed on a 55° C. hot plate. A sixty second cut-off was used and animals not responding within this time was considered analgesic. The results of these tests are summarized in Table I. Percent analgesia was calculated as follows: [formula] Antagonism to morphine analgesia was also measured using the tail flick test. The tails of the treated animals were placed in a 55° C. water bath and the latency of the animals to withdraw was measured in seconds. A fifteen second cut-off time was used.
Percent analgesia in the tail flick test was calculated as follows: [formula]

Sprague-Dawley rats [2] = test: Morphine antagonism, hot plate test; format: in vivo, rat; settings: Reversal of morphine analgesia, 100 μg peptide given I.P. 30 min before 5 mg/kg morphine; 55° C. hot plate, 60 s cut-off; water vehicle control 56.1
Method: as §1, §2, §3

frog Rana pipiens = test: Frog skin bioassay (skin darkening, peripheral activity); format: in vivo; settings: injected into dorsal lymph sac of Rana pipiens, 30 minute observation
Method: as §1
The peripheral activity of the compounds was tested using the frog skin bioassay system. See O'Donohue, T. L. and Dorsa, D. M., Peptides, 3, 353-395 (1982) and Hadley, M.E. et. al., Science, 213, 1025-1027 (1981) which are herein specifically incorporated by reference. Peptides were injected into the dorsal lymph sac of the frog Rana pipiens in amounts up to 20 mg. […] The lowest dose of peptide that produced skin darkening within the 30 minute observation period was determined. For example, in Table I, only 0.1 ng/g of α-MSH was administered before skin darkening was observed. In contract, 30 μg/g of [drawing 23] was administered and no skin darkening was observed.

## N=C(N)NCCC[C@H]1NC(=O)[C@H](Cc2ccccc2)NC(=O)[C@H](Cc2c[nH]cn2)NC(=O)[C@H](CCC(=O)O)NC(=O)[C@@H](N)CSSC[C@H](C(=O)O)NC(=O)[C@H](Cc2ccccc2)NC1=O (H-CEHF[dR]F[dC]-OH; disulfide 1-7)
Sprague-Dawley rats [1]
  Percent Analgesia Tail Flick: 34.3%
Sprague-Dawley rats [2]
  Percent Analgesia Hot Plate: 42.6%
Frog Rana pipiens
  Minimum dose Producing Skin Darkening: > 1 µg/g

## NCCCC[C@H]1NC(=O)[C@H](Cc2ccccc2)NC(=O)[C@H](Cc2c[nH]cn2)NC(=O)[C@H](CCC(=O)O)NC(=O)[C@@H](N)CSSC[C@@H](C(=O)O)NC(=O)[C@H](Cc2ccccc2)NC1=O (H-CEHF[dK]FC-OH; disulfide 1-7)
Sprague-Dawley rats [1]
  Percent Analgesia Tail Flick: 14.9%
Sprague-Dawley rats [2]
  Percent Analgesia Hot Plate: 15.5%
Frog Rana pipiens
  Minimum dose Producing Skin Darkening: > 1 µg/g

## NCCCC[C@H]1NC(=O)[C@H](Cc2ccccc2)NC(=O)[C@H](Cc2c[nH]cn2)NC(=O)[C@H](CCC(=O)O)NC(=O)[C@@H](N)CSSC[C@H](C(=O)O)NC(=O)[C@H](Cc2ccccc2)NC1=O (H-CEHF[dK]F[dC]-OH; disulfide 1-7)
Sprague-Dawley rats [1]
  Percent Analgesia Tail Flick: 10.5%
Sprague-Dawley rats [2]
  Percent Analgesia Hot Plate: 15.0%
Frog Rana pipiens
  Minimum dose Producing Skin Darkening: 1 µg/g

## β-MSH [reference compound]
Sprague-Dawley rats [1]
  Percent Analgesia Tail Flick: 11.9%
Sprague-Dawley rats [2]
  Percent Analgesia Hot Plate: 26.9%

## N=C(N)NCCC[C@H]1NC(=O)[C@H](Cc2ccccc2)NC(=O)[C@H](Cc2c[nH]cn2)NC(=O)[C@H](CCC(=O)O)NC(=O)[C@@H](N)CSSC[C@@H](C(=O)O)NC(=O)[C@H](Cc2c[nH]c3ccccc23)NC1=O
Sprague-Dawley rats [1]
  Percent Analgesia Tail Flick: 6.7%
Frog Rana pipiens
  Minimum dose Producing Skin Darkening: > 20 µg/g

## NCCCC[C@H]1NC(=O)[C@H](Cc2ccccc2)NC(=O)[C@H](Cc2c[nH]cn2)NC(=O)[C@H](CCC(=O)O)NC(=O)[C@@H](N)CSSC[C@@H](C(=O)O)NC(=O)[C@H](Cc2c[nH]c3ccccc23)NC1=O (H-CEHF[dK]WC-OH; disulfide 1-7)
Sprague-Dawley rats [1]
  Percent Analgesia Tail Flick: 1.5%
Frog Rana pipiens
  Minimum dose Producing Skin Darkening: > 30 µg/g
